In brackets after ≈: the same amount, converted by molar mass.
Columns and labels:
[1] = system: HeLa (Ohio strain)cells; assay: Cytotoxicity (MTT, without virus), HeLa(Ohio); conditions: HeLa(Ohio), no virus, incubated for 4 days
[2] = system: HeLa cells; assay: Cytotoxicity (MTT, without virus), HeLa; conditions: HeLa, no virus, incubated for 4 days
[3] = system: HRV 2 (HGP); assay: Anti-rhinovirus activity (MTT), HRV2; format: cell-based, human rhinovirus; conditions: HeLa (Ohio strain) cells, MTT method, 33° C.
[4] = system: echovirus type 11 (Echo 11, Gregory); assay: In vitro anti-picornavirus activity (MTT), Echo 11; format: cell-based; conditions: HeLa-S3 cells, MTT method, 37° C.
[5] = system: coxsackievirus type A7 (CA7); assay: In vitro anti-picornavirus activity (MTT), CA7; format: cell-based; conditions: HeLa-S3 cells, MTT method, 37° C.
[6] = system: human rhinovirus type 1B (HRV 1B, B632); assay: Anti-rhinovirus activity (MTT), HRV1B; format: cell-based; conditions: HeLa (Ohio strain) cells, MTT method, 33° C.
[7] = system: coxsackievirus type B4 (CB4,JVB); assay: In vitro anti-picornavirus activity (MTT), CB4; format: cell-based; conditions: HeLa cells, MTT method, 37° C.
[8] = system: Poliovirus type 1 (Polio 1, Sabin); assay: microbe, parasite or virus in culture; format: cell-based
[9] = system: HRV 89 (41617-Gallo); assay: Anti-rhinovirus activity (MTT), HRV89; format: cell-based, human rhinovirus; conditions: HeLa (Ohio strain) cells, MTT method, 33° C.
[10] = system: HeLa-S3 cells; assay: Cytotoxicity (MTT, without virus), HeLa-S3; conditions: HeLa-S3, no virus, incubated for 4 days

| Compound | Cytotoxicity CC50 HeLa(Ohio) [1] | Cytotoxicity CC50 HeLa [2] | IC50 HRV2 [3] | IC50 Echo 11 [4] | IC50 CA7 [5] | IC50 HRV1B [6] | IC50 CB4 [7] | IC50 Polio 1 [8] | IC50 HRV89 [9] | Cytotoxicity CC50 HeLa-S3 [10] |
| --- | --- | --- | --- | --- | --- | --- | --- | --- | --- | --- |
| Cc1c(-c2cccs2)n(C)c2ccc(OCC(C)C)c(C)c2c1=O [Compound A318] | >2.5 mg/L | >2.5 mg/L | 0.38 mg/L (≈ 1.11 µM) | 0.27 mg/L (≈ 0.791 µM) | 2.0 mg/L (≈ 5.86 µM) | 0.45 mg/L (≈ 1.32 µM) | 0.65 mg/L (≈ 1.9 µM) | 0.47 mg/L (≈ 1.38 µM) | 0.16 mg/L (≈ 0.469 µM) | >2.5 mg/L |
| CCn1c(-c2ccn(C)c2)cc(=O)c2cc(C(C)C)ccc21 [Compound A307] | 18 mg/L | >20 mg/L | 0.39 mg/L (≈ 1.32 µM) | 0.34 mg/L (≈ 1.15 µM) | 1.9 mg/L (≈ 6.45 µM) | 0.83 mg/L (≈ 2.82 µM) | 1.3 mg/L (≈ 4.42 µM) | 0.79 mg/L (≈ 2.68 µM) | 0.86 mg/L (≈ 2.92 µM) | >20 mg/L |
| CCn1c(-c2cccc(C)c2)c(C)c(=O)c2c(Cl)c(OCC(C)C)ccc21 [Compound A181] | >2.5 mg/L | >2.5 mg/L | 0.94 mg/L (≈ 2.45 µM) | 0.24 mg/L (≈ 0.625 µM) | 2.4 mg/L (≈ 6.25 µM) | 1.6 mg/L (≈ 4.17 µM) | 1.8 mg/L (≈ 4.69 µM) | 0.39 mg/L (≈ 1.02 µM) | 0.46 mg/L (≈ 1.2 µM) | >2.5 mg/L |
| Cc1c(-c2ccccc2)n(C)c2ccc(OCC(C)C)c(N)c2c1=O.Cl [Compound A194] | >2.5 mg/L | >2.5 mg/L | 0.49 mg/L | 0.45 mg/L | 1.7 mg/L | 0.05 mg/L | 1.3 mg/L | 0.58 mg/L | 0.18 mg/L | >2.5 mg/L |
| Cc1cc2c(c(C)c1OCC(C)C)c(=O)cc(-c1ccccc1)n2C [Compound A285] | >4 mg/L | >4 mg/L | 0.18 mg/L (≈ 0.537 µM) | 0.2 mg/L (≈ 0.596 µM) | 3.1 mg/L (≈ 9.24 µM) | 0.68 mg/L (≈ 2.03 µM) | 1.9 mg/L (≈ 5.66 µM) | 0.69 mg/L (≈ 2.06 µM) | 0.46 mg/L (≈ 1.37 µM) | >4 mg/L |
| CCn1c(-c2ccccc2)c(C)c(=O)c2c(C)c(OCC(C)C)ccc21 [Compound A188] | >5 mg/L | >5 mg/L | 0.33 mg/L (≈ 0.944 µM) | 0.27 mg/L (≈ 0.773 µM) | 1.2 mg/L (≈ 3.43 µM) | 0.81 mg/L (≈ 2.32 µM) | 1.1 mg/L (≈ 3.15 µM) | 0.31 mg/L (≈ 0.887 µM) | 0.25 mg/L (≈ 0.715 µM) | >5 mg/L |
| CCOc1ccc(-c2cc(=O)c3cc(C(C)C)ccc3n2C)cc1C [Compound A99] | 5.7 mg/L | 5.4 mg/L | 0.50 mg/L (≈ 1.49 µM) | 0.20 mg/L (≈ 0.596 µM) | 1.8 mg/L (≈ 5.37 µM) | 0.63 mg/L (≈ 1.88 µM) | 1.1 mg/L (≈ 3.28 µM) | 0.55 mg/L (≈ 1.64 µM) | 0.14 mg/L (≈ 0.417 µM) | 5.8 mg/L |
| Cc1cc2c(cc1OCC(C)C)c(=O)c(C)c(-c1ccccc1)n2C [Compound A234] | >5 mg/L | >5 mg/L | 0.26 mg/L (≈ 0.775 µM) | 0.25 mg/L (≈ 0.745 µM) | 3.8 mg/L (≈ 11.3 µM) | 1.0 mg/L (≈ 2.98 µM) | 2.5 mg/L (≈ 7.45 µM) | 0.89 mg/L (≈ 2.65 µM) | 0.32 mg/L (≈ 0.954 µM) | >5 mg/L |
| CCn1c(-c2ccccc2)c(C)c(=O)c2cc(OCC(C)C)c(C)cc21 [Compound A235] | >4 mg/L | >4 mg/L | 0.24 mg/L (≈ 0.687 µM) | 0.27 mg/L (≈ 0.773 µM) | 2.8 mg/L (≈ 8.01 µM) | 0.75 mg/L (≈ 2.15 µM) | 2.9 mg/L (≈ 8.3 µM) | 0.72 mg/L (≈ 2.06 µM) | 0.35 mg/L (≈ 1 µM) | >4 mg/L |
